Measured values from patent US11179391B2, “Compound with kinase inhibitory activity and preparation method and use thereof” (priority 2017, dated 2021).

Tests used:
CDK6/cycD3 = CDK6/cycD3 (Homo sapiens, UniProt Q00534); experiment: Determination of CDK activity (Caliper mobility shift, FAM-P8 peptide): CDK6; format: biochemical; details: CDK6/cycD3; read-out: CDK6 enzymatic inhibitory activity (IC50)
Procedure, shortened: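 GST-CDK6(1-326)/cycD3 with FAM-P8 peptide and ATP, after 10 min room-temperature enzyme–compound preincubation; reaction at 28 °C, then EDTA stop. Substrate conversion read by Caliper mobility shift; inhibition from no-compound and no-enzyme controls, IC50 fitted over 10-point dilution in DMSO.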

CDK4/CycD3 = CDK4/CycD3 (Homo sapiens, UniProt P11802); experiment: Determination of CDK activity (Caliper mobility shift, FAM-P8 peptide): CDK4; format: biochemical; details: CDK4/CycD3; read-out: CDK4 enzymatic inhibitory activity (IC50)
Procedure, shortened: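 GST-CDK4(1-303)/GST-CycD3(1-292) was preincubated with compound for 10 min at room temperature, then FAM-P8 peptide and ATP were added; the reaction ran at 28 °C and was stopped with EDTA-containing stop buffer. Peptide conversion was read by Caliper mobility shift. A 10-point dilution series was fitted for IC50.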

CDK7/CyclinH/MAT1 = CDK7/CyclinH/MAT1 (Homo sapiens, UniProt P50613); experiment: Determination of CDK activity (Caliper mobility shift, FAM-P8 peptide): CDK7; format: biochemical; details: CDK7/CyclinH/MAT1; read-out: CDK7 enzymatic inhibitory activity (IC50)
Procedure, shortened: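 His-CDK7/GST-MAT1/cyclin H preincubated with compound (10-point series) 10 min at room temperature, then reacted with FAM-P8 peptide plus ATP at 28 °C for a set time before stopping. Peptide conversion read by Caliper mobility shift; converted to % inhibition vs controls and IC50 fitted.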

CDK9/cyclinTl = CDK9/cyclinTl (Homo sapiens, UniProt P50750); experiment: Determination of CDK activity (Caliper mobility shift, FAM-P8 peptide): CDK9; format: biochemical; details: CDK9/cyclinTl; read-out: CDK9 enzymatic inhibitory activity (IC50)
[1] = test system: Human leukemia MV4-11 cells; experiment: Pharmacodynamic study on mouse MV4-11 model (subcutaneous xenograft); format: in vivo, BALB/c nude mice; details: for tumor inhibition effect compared with Abemaciclib (in words) / Tumor volume (day 0) / Tumor volume (day 21) / T/C relative tumor proliferation rate / TGI tumor growth inhibition rate: MV4-11 model, 50 mg/kg PO × 21 days; for Tumor volume (day 0): baseline at start of dosing; for Tumor volume (day 0) / Tumor volume (day 21) / T/C relative tumor proliferation rate / TGI tumor growth inhibition rate: mesylate; for T/C relative tumor proliferation rate / TGI tumor growth inhibition rate: day 21; for inhibitory effect on the tumor growth (in words): MV4-11 nude mouse model, 50 mg/kg, continuous PO administration for 21 days
CDK2/CycA2 = CDK2/CycA2 (Homo sapiens, UniProt P24941); experiment: Determination of CDK activity (Caliper mobility shift, FAM-P8 peptide): CDK2; format: biochemical; details: CDK2/CycA2; read-out: CDK2 enzymatic inhibitory activity (IC50)

Chain of CDK6/cycD3 (Q00534 whole entry): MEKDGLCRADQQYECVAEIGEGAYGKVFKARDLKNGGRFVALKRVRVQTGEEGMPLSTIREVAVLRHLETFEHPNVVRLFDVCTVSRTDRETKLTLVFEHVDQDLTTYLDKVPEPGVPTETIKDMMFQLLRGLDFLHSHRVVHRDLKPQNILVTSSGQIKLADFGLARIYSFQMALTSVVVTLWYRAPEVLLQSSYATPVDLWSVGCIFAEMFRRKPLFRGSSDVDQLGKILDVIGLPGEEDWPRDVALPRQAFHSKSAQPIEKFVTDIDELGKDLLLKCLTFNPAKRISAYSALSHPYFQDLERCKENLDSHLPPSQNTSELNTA
Chain of CDK6/cycD3 (P30281 whole entry partner): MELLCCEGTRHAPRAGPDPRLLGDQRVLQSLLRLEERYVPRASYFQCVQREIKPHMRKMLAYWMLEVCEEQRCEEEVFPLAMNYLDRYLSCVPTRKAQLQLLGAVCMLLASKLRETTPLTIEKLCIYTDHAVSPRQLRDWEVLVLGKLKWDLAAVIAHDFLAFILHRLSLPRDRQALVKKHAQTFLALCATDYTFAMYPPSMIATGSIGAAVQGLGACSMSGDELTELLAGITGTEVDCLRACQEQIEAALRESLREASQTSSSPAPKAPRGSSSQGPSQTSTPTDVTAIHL
Chain of CDK4/CycD3 (P11802 whole entry): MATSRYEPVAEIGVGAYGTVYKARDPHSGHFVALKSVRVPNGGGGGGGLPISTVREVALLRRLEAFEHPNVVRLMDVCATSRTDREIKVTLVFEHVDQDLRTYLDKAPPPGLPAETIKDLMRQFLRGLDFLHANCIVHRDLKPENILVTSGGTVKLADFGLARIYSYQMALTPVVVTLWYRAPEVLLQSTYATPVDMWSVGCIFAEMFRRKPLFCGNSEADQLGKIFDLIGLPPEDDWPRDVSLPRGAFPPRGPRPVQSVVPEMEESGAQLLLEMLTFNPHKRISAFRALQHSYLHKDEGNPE
Chain of CDK4/CycD3 (P30281 whole entry partner): as the sequence (P30281 whole entry partner) above
Chain of CDK9/cyclinTl (P50750 whole entry): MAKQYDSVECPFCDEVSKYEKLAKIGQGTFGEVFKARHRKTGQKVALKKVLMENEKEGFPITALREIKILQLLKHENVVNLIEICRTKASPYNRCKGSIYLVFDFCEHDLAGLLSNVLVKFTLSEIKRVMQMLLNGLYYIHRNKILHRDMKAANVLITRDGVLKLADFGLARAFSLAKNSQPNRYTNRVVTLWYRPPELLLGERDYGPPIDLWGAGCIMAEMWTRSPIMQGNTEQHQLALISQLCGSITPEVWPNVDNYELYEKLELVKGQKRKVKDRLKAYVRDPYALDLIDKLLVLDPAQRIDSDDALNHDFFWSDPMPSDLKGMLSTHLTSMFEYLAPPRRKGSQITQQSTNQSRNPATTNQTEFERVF
Chain of CDK9/cyclinTl (O60563 whole entry partner): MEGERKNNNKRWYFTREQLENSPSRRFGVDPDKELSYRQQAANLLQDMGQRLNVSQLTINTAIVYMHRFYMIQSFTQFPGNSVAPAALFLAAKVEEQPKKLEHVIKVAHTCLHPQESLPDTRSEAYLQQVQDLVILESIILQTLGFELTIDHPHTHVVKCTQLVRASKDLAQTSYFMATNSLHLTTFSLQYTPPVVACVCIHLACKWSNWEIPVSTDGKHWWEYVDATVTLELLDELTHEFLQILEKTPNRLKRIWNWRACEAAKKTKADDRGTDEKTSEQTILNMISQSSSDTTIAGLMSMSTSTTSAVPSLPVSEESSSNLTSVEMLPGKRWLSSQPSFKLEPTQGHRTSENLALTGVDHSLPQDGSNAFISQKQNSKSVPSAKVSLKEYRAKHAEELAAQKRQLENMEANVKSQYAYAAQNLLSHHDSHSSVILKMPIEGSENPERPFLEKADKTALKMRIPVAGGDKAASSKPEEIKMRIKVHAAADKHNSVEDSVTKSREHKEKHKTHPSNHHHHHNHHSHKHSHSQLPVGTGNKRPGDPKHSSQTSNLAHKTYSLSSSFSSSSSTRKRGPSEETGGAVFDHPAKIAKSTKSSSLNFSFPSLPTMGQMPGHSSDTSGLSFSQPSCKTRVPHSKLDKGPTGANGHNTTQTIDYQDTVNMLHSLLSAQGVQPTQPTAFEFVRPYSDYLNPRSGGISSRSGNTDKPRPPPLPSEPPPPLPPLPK
Chain of CDK7/CyclinH/MAT1 (P50613 whole entry): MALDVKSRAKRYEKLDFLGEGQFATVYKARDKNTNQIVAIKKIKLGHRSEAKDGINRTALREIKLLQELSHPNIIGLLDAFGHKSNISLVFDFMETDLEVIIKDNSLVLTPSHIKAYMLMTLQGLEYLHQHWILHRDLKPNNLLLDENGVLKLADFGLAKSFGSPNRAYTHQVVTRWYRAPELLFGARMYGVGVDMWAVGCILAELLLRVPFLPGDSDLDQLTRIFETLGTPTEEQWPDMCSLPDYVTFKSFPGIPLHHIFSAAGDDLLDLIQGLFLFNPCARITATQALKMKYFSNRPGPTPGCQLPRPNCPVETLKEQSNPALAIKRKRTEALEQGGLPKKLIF
Chain of CDK7/CyclinH/MAT1 (P51946 whole entry partner): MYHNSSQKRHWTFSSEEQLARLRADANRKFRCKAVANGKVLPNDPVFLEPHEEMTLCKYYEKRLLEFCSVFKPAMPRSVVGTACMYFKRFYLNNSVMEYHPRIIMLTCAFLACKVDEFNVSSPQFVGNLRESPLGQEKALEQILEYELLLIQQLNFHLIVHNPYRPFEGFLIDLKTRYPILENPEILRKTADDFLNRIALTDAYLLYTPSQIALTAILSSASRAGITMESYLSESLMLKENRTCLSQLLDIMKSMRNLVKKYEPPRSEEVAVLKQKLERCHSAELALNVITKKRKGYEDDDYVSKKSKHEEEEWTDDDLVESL
Chain of CDK7/CyclinH/MAT1 (P51948 whole entry partner): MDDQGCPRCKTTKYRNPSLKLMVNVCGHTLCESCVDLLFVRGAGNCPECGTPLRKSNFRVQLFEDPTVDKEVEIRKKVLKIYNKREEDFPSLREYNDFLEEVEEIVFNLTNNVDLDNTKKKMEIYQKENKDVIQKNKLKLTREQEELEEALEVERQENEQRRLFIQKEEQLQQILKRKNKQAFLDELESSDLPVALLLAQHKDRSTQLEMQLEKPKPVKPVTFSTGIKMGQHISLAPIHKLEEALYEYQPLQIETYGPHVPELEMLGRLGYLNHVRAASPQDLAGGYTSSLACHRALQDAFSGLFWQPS

| SMILES | IC50 (CDK6/cycD3) [nM] | IC50 (CDK4/CycD3) [nM] | IC50 (CDK7/CyclinH/MAT1) [nM] | IC50 (CDK9/cyclinTl) [nM] | tumor inhibition effect compared with Abemaciclib (in words) [1] | Tumor volume (day 0) [1] [mm^3] | Tumor volume (day 21) [1] [mm^3] | T/C relative tumor proliferation rate [1] [%] | TGI tumor growth inhibition rate [1] [%] | inhibitory effect on the tumor growth (in words) [1] | IC50 (CDK2/CycA2) [nM] |
| --- | --- | --- | --- | --- | --- | --- | --- | --- | --- | --- | --- |
| CCN1CCC(C(C)c2ccc(Nc3ncc(F)c(-c4cc(F)c5nc(C)n(C(C)C)c5c4)n3)nc2)CC1 (single isomer, unassigned) [Example 17, (R or S)—N-(5-(1-(1-ethylpiperidin-4-yl)ethyl)pyridin-2-yl)-5-fluoro-4-(4-fluoro-1-isopropyl-2-methyl-1H-benzo[d]imidazol-6-yl) pyrimidin-2-amine] | < 100 | < 100 | 1000 to 10000 | 100 to 500 | equivalent to that of positive control compound Abemaciclib | 158 | 463 | 38 | 62 | good inhibitory effect | < 100 |
| CCN1CCC(=Cc2ccc(Nc3ncc(F)c(-c4cc(F)c5nc(C)n(C(C)C)c5c4)n3)nc2)CC1 [Example 57, N-(5-((1-ethylpiperidin-4-ylidene)methyl)pyridin-2-yl)-5-fluoro-4-(4-fluoro-1-isopropyl-2-methyl-1H-benzo[d]imidazol-6-yl)pyrimidin-2-amine] | < 100 | < 100 | 1000 to 10000 | < 100 | equivalent to that of positive control compound Abemaciclib | 158 | 491 | 41 | 59 | good inhibitory effect | < 100 |
